Read-outs that look alike come from different tables or passages of the source.
Tests used:
MT4 cells = experiment: Cytotoxicity evaluation (cell number in Coulter after 96 hours); type: cell-based
Protocol: (§1) The cellular lines utilized in this study were: H9, T lymphocytes, CD4+, permissive for the HIV replication but partially resistant to its cytopathic effect; • H9/IIIB, H9 lymphocytes chronically infected by HTLV/IIIB virus; • MT4 and C8166, T lymphocytes lines, CD4+ permissive for HIV replication. In C8166 the virus induces a cytopathic effect which results in the formation of syncytia easily visible at the optical microscope.
(§2) All the lymphoid lines were cultured in RPMI 1640 containing 10 % of non decomplemented fetal calf serum (FCS), penicillin 100U/mL and streptomycin 100 µg/mL and incubated at 37 °C in 5% CO₂.
(§3) For the cytotoxicity evaluation, the cells were resuspended in a culture medium at a density of 1 x 10⁵/mL, were incubated in the absence or in the presence of various concentration of the compounds to be studied and their number was determined in Coulter after 96 hours of incubation at 37 °C.

C8166 cells = experiment: as above; type: cell-based; settings: C8166 cells; concentrations up to 500 µM
Protocol: as §1, §2, §3

HIV-1 [1] = experiment: Inhibition of infecting HIV production in C8166 cells (end point titration); type: cell-based; settings: for EC90: read-out: ED90 (the source's name)
Protocol: as §1, §2
(§4) HIV virus was obtained by H9/IIIB cells surnatant taken at the end of their exponential growth.
(§5) The titre of several stock preparations was comprised between 2 and 5 x 10⁵ Cell Culture Infection Dose 50 (CCID50)/mL.
(§6) For the evaluation of the anti-HIV activity the inhibition of infecting HIV production was determined as follows.
(§7) C8166 or MT4 cells sown at a density of 1 x 10⁶ cells/ml, were infected with a multiplicity of infection (m.o.i.) comprised between 0.05 and 0.02 CCID50/cell. After two hours of incubation at 37 °C and subsequent removal of the inoculum, the cells were washed three times and resuspended at a density of 1 x 10⁵ cells/ml. in the absence or in the presence of the compounds to be investigated.
(§8) After 4 days of incubation at 37 °C the presence of syncytia was evaluated at the optical microscope and the quantity of infecting HIV present in the surnatant of the cultures was determined by end point titration.
(§9) HIV titration was carried out in C8166 cells sown at a density of 1 x 10⁵ cells/mL/well, by the limit dilution method (dilution ratio 1:2, every dilution being sown in quadruplicate).
(§10) After four days of incubation, the syncytia presence was evaluated at the microscope and the viral titre was calculated by the Reed and Muench method.

HIV-1 [2] = experiment: Inhibition of infecting HIV production in MT4 cells (end point titration); type: cell-based; settings: for EC90: read-out: ED90 (the source's name)
Protocol: as §1, §2, §4, §5, §6, §7, §8, §9, §10

[3] = Cytotoxicity evaluation (cell number in Coulter after 96 hours); type: cell-based; settings: human
Protocol: as §1, §2, §3

human T lymphocytes = settings: G. Ahluwalia et al. 1987; cited from earlier work
[4] = MT4 cells, concentrations up to 500 µM
[5] = c8166 cells, maxima non cytotoxic doses (MNTD)
[6] = mt4 cells, maxima non cytotoxic doses (MNTD)
[7] = C8166 cells, compound alone, Table 2
[8] = ddAdo alone (EHNA absent), C8166, Table 3
[9] = MT4 cells, compound alone, Table 2
[10] = ddAdo alone (Coformycin absent), MT4, Table 4
[11] = ddAdo alone (desoxycoformycin absent), MT4, Table 5
[12] = ddAdo with Coformycin 0.02 (unit not given), MT4
[13] = ddAdo with Coformycin 0.06 (unit not given), MT4
[14] = ddAdo with Coformycin 0.2 (unit not given), MT4
[15] = ddAdo with Coformycin 0.5 (unit not given), MT4
[16] = ddAdo with Coformycin 1.6 (unit not given), MT4
[17] = ddAdo with Coformycin 5 (unit not given), MT4
[18] = ddAdo with Coformycin 15 (unit not given), MT4
[19] = ddAdo with Coformycin 45 (unit not given), MT4
[20] = ddAdo with desoxycoformycin 0.05 (unit not given), MT4
[21] = ddAdo with desoxycoformycin 0.5 (unit not given), MT4
[22] = ddAdo with desoxycoformycin 5 (unit not given), MT4
[23] = ddAdo with desoxycoformycin 50 (unit not given), MT4

OC[C@H]1O[C@@H](n2cnc3c2NC=NC[C@H]3O)C[C@@H]1O [dCF, desoxycoformycin]
toxicity (MT4 cells; [4]): non toxic
toxicity (C8166 cells): non toxic
anti-HIV-1 activity (HIV-1 [1]; C8166 cells, concentrations up to 500 µM): without any anti-HIV-1 activity
anti-HIV-1 activity (HIV-1 [2]; [4]): without any anti-HIV-1 activity
lowest concentration enhancing ddAdo anti-HIV activity, relative to its MNTD (HIV-1 [2]; dCF with ddAdo, MT4): more than 10,000 times lower

Nc1ncnc2c1ncn2[C@H]1CC[C@@H](CO)O1 [ddAdo, 2',3'-didesoxyadenosine]
MNTC (MT4 cells; human, mt4 cells, 96 h): 1 mM
CC50 at 96 h ([3]; c8166 cells): > 1000 µM
MNTC at 96 h ([3]; c8166 cells, MNTD): > 1 mM
MNTC at 96 h [3, 5]: ≥ 1 mM
CC50 at 96 h ([3]; mt4 cells): > 1000 µM
MNTC at 96 h ([3]; mt4 cells, MNTD): > 1 mM
MNTC at 96 h [3, 6]: ≥ 1 mM
MNTC at 96 h ([3]; mt4 cells, in association with 15 µM of EHNA, Fig. 2, read-out: MNTD of ddAdo): 0.06 mM
MNTC at 96 h ([3]; mt4 cells, in association with 125 µM of CF, Fig. 3, read-out: MNTD of ddAdo): 0.06 mM
EC90 (HIV-1 [1]; [7]): 25 µM
ED99 (HIV-1 [1]; [8]): 39.0 µM
ED99.9 (HIV-1 [1]; [8]): 61.0 µM
ED99 (HIV-1 [1]; ddAdo with EHNA 0.06 µM, C8166): 30.5 µM
ED99.9 (HIV-1 [1]; ddAdo with EHNA 0.06 µM, C8166): 52.0 µM
EC90 (HIV-1 [1]; ddAdo with EHNA 0.06 µM, C8166): 10.5 µM
ED99 (HIV-1 [1]; ddAdo with EHNA 0.2 µM, C8166): 18.0 µM
ED99.9 (HIV-1 [1]; ddAdo with EHNA 0.2 µM, C8166): 42.5 µM
EC90 (HIV-1 [1]; ddAdo with EHNA 0.2 µM, C8166): 7.5 µM
ED99 (HIV-1 [1]; ddAdo with EHNA 0.5 µM, C8166): 14.5 µM
ED99.9 (HIV-1 [1]; ddAdo with EHNA 0.5 µM, C8166): 34.5 µM
EC90 (HIV-1 [1]; ddAdo with EHNA 0.5 µM, C8166): 6.5 µM
ED99 (HIV-1 [1]; ddAdo with EHNA 1.6 µM, C8166): 11.5 µM
ED99.9 (HIV-1 [1]; ddAdo with EHNA 1.6 µM, C8166): 25.5 µM
EC90 (HIV-1 [1]; ddAdo with EHNA 1.6 µM, C8166): 5 µM
ED99 (HIV-1 [1]; ddAdo with EHNA 5 µM, C8166): 10.0 µM
ED99.9 (HIV-1 [1]; ddAdo with EHNA 5 µM, C8166): 23.5 µM
EC90 (HIV-1 [1]; ddAdo with EHNA 5 µM, C8166): 3.5 µM
ED99 (HIV-1 [1]; ddAdo with EHNA 15 µM, C8166): 7.5 µM
ED99.9 (HIV-1 [1]; ddAdo with EHNA 15 µM, C8166): 17.5 µM
EC90 (HIV-1 [1]; ddAdo with EHNA 15 µM, C8166): 3 µM
EC90 (HIV-1 [2]; [9]): 10 µM
ED99 (HIV-1 [2]; [10]): 19.0 µM
ED99.9 (HIV-1 [2]; [10]): 32.0 µM
EC90 (HIV-1 [2]; [10]): 11 µM
ED99 (HIV-1 [2]; [11]): 14.3 µM
ED99.9 (HIV-1 [2]; [11]): 23.8 µM
EC90 (HIV-1 [2]; [11]): 4.8 µM
EC90 (HIV-1 [2]; ddAdo with Coformycin 0.02 (unit inferred), MT4): 4 µM
ED99 (HIV-1 [2]; [12]): 7.6 µM
ED99.9 (HIV-1 [2]; [12]): 13.7 µM
ED99 (HIV-1 [2]; [13]): 7.1 µM
ED99.9 (HIV-1 [2]; [13]): 12.5 µM
ED99 (HIV-1 [2]; [14]): 5.0 µM
ED99.9 (HIV-1 [2]; [14]): 8.0 µM
EC90 (HIV-1 [2]; ddAdo with Coformycin 0.5 (unit inferred), MT4): 3.6 µM
ED99 (HIV-1 [2]; [15]): 5.0 µM
ED99.9 (HIV-1 [2]; [15]): 8.0 µM
EC90 (HIV-1 [2]; ddAdo with Coformycin 1.6 (unit inferred), MT4): 2.5 µM
ED99 (HIV-1 [2]; [16]): 4.5 µM
ED99.9 (HIV-1 [2]; [16]): 7.5 µM
EC90 (HIV-1 [2]; ddAdo with Coformycin 5 (unit inferred), MT4): 2 µM
ED99 (HIV-1 [2]; [17]): 4.0 µM
ED99.9 (HIV-1 [2]; [17]): 7.5 µM
EC90 (HIV-1 [2]; ddAdo with Coformycin 15 (unit inferred), MT4): 1.5 µM
ED99 (HIV-1 [2]; [18]): 3.5 µM
ED99.9 (HIV-1 [2]; [18]): 7.5 µM
EC90 (HIV-1 [2]; ddAdo with Coformycin 45 (unit inferred), MT4): 1 µM
ED99 (HIV-1 [2]; [19]): 2.5 µM
ED99.9 (HIV-1 [2]; [19]): 7.0 µM
ED99 (HIV-1 [2]; [20]): 8.0 µM
ED99.9 (HIV-1 [2]; [20]): 14.4 µM
EC90 (HIV-1 [2]; ddAdo with desoxycoformycin 0.5 (unit inferred), MT4): 1.3 µM
ED99 (HIV-1 [2]; [21]): 7.8 µM
ED99.9 (HIV-1 [2]; [21]): 14.2 µM
EC90 (HIV-1 [2]; ddAdo with desoxycoformycin 5 (unit inferred), MT4): 1.1 µM
ED99 (HIV-1 [2]; [22]): 6.2 µM
ED99.9 (HIV-1 [2]; [22]): 11.2 µM
EC90 (HIV-1 [2]; ddAdo with desoxycoformycin 50 (unit inferred), MT4): 0.9 µM
ED99 (HIV-1 [2]; [23]): 3.8 µM
ED99.9 (HIV-1 [2]; [23]): 6.7 µM

OC[C@@H]1CC[C@H](n2cnc3c(O)ncnc32)O1 [ddIno, 2',3'-didesoxy-inosine, reference compound]
CC50 at 96 h ([3]; c8166 cells): > 1000 µM
MNTC at 96 h ([3]; c8166 cells, MNTD): > 1 mM
MNTC at 96 h [3, 5]: ≥ 1 mM
CC50 at 96 h ([3]; mt4 cells): > 1000 µM
MNTC at 96 h ([3]; mt4 cells, MNTD): > 1 mM
MNTC at 96 h [3, 6]: ≥ 1 mM
EC90 (HIV-1 [1]; [7]): 28 µM
EC90 (HIV-1 [2]; [9]): 11 µM
entry into the cells, less efficient than that of ddAdo (human T lymphocytes): 4-6 time
